Test results as given in US20070172957A1, “Methods of identifying anti-inflammatory macrolides” (TAISHO PHARMACEUTICAL CO., LTD., priority 2004, published 2007).

System: genes predictive for the anti-inflammatory macrolide effect
Test: Genes statistically predictive of Clari response: differentially expressed with Clari but not the inactive macrolides MAA or Josa (Appendix E)
Format: cell-based
From the text: In the case of the above-mentioned (i) related to arachidonic acid biosynthesis, specifically, methods of the embodiment involve assaying whether a test macrolide alters biosynthesis of arachidonic acid, alters the expression or activities of enzymes involved in the biosynthesis or activation of arachidonic acid (e.g., arachidonic acid CoA synthetase, delta-6 desaturase, fatty acid elongase, and delta-5 desaturase, AA-related genes in Tables 2 and 3), or alters the expression of genes identified as predictive for the anti-inflammatory macrolide effect (Appendix E). Assays in which arachidonic acid or gene expression or enzymatic activity is detected can be carried out after contacting a cell with a test macrolide. Any cell line that secretes prostaglandin or produces arachidonic acid can be used. Epithelial and macrophages lines (e.g., A549 or THP-1) are suitable for this purpose; other cell lines can be identified by carrying out assays such as those described in the specific Examples, below. Alternatively, screening assays can be carried out after adding a test macrolide to an in vitro cell system (e.g., a cellular extract or liver microsome preparation) or an in vitro enzyme assay system.

## CO[C@@H]1[C@@H](O[C@@H]2O[C@H](C)[C@@H](O[C@H]3C[C@@](C)(O)[C@@H](OC(=O)CC(C)C)[C@H](C)O3)[C@H](N(C)C)[C@H]2O)[C@@H](CC=O)C[C@@H](C)[C@@H](O)/C=C/C=C/C[C@@H](C)OC(=O)C[C@H]1OC(C)=O [josamycin]
SpotID 47949, MAA and Josa vs. Clari
  group mean, gene BCKDK: 1.07
SpotID 47950, MAA and Josa vs. Clari
  group mean, gene DNASE1L1: 0.96
SpotID 47950, pooled group mean
  mean group, DNASE1L1: 0.96
SpotID 47951, MAA and Josa vs. Clari
  group mean, gene COX15: 1.05
SpotID 47973, pooled group mean
  mean group, USF2: 0.96
SpotID 47987, MAA and Josa vs. Clari
  group mean, gene THBS1: 1.02
SpotID 47987, pooled group mean
  mean group, THBS1: 1.02
SpotID 47988, pooled group mean
  mean group, RPN2: 0.93
SpotID 47995, MAA and Josa vs. Clari
  group mean, gene PTGER1: 1.00
SpotID 48000, MAA and Josa vs. Clari
  group mean, gene CTSH: 0.93
SpotID 48004, pooled group mean
  mean group, CUTL1: 1.22
SpotID 48006, MAA and Josa vs. Clari
  group mean, gene BCL2L2: 0.86
SpotID 48026, pooled group mean
  mean group, SRF: 0.94
SpotID 48121, MAA and Josa vs. Clari
  group mean, gene SCN1B: 0.90
SpotID 48137, pooled group mean
  mean group, FRDA: 1.03
SpotID 48149, MAA and Josa vs. Clari
  group mean, gene SFRS7: 0.98
SpotID 48149, pooled group mean
  mean group, SFRS7: 0.98
SpotID 48160, MAA and Josa vs. Clari
  group mean, gene ZAP3: 1.08
SpotID 48160, pooled group mean
  mean group, ZAP3: 1.08
SpotID 48182, MAA and Josa vs. Clari
  group mean, gene SNAPC1: 1.00
SpotID 48192, MAA and Josa vs. Clari
  group mean, gene OPA1: 1.02
SpotID 48214, MAA and Josa vs. Clari
  group mean, gene BAT8: 1.02
SpotID 48233, MAA and Josa vs. Clari
  group mean, gene MAPK12: 0.88
SpotID 48233, pooled group mean
  mean group, MAPK12: 0.88
SpotID 48235, MAA and Josa vs. Clari
  group mean, gene DAXX: 1.02
SpotID 48266, MAA and Josa vs. Clari
  group mean, gene GRB2: 0.93
SpotID 48266, pooled group mean
  mean group, GRB2: 0.93
SpotID 48280, MAA and Josa vs. Clari
  group mean, gene ARHC: 0.90
SpotID 48301, MAA and Josa vs. Clari
  group mean, gene GCN5L1: 0.93
SpotID 48301, pooled group mean
  mean group, GCN5L1: 0.93
SpotID 48328, MAA and Josa vs. Clari
  group mean, gene FN1: 1.00
SpotID 48333, MAA and Josa vs. Clari
  group mean, gene DNMT1: 0.97
SpotID 48345, pooled group mean
  mean group, CCT3: 0.97
SpotID 48348, MAA and Josa vs. Clari
  group mean, gene FN1: 1.00
SpotID 48363, MAA and Josa vs. Clari
  group mean, gene CNOT2: 1.03
SpotID 48365, MAA and Josa vs. Clari
  group mean, gene MAPK9: 1.04
SpotID 48365, pooled group mean
  mean group, MAPK9: 1.04
SpotID 48396, MAA and Josa vs. Clari
  group mean, gene CNOT2: 1.04
SpotID 48397, MAA and Josa vs. Clari
  group mean, gene HIF1A: 1.09
SpotID 48411, MAA and Josa vs. Clari
  group mean, gene MGEA5: 0.97
SpotID 48411, pooled group mean
  mean group, MGEA5: 0.97
SpotID 48415, MAA and Josa vs. Clari
  group mean, gene SERPINB1: 1.02
SpotID 48415, pooled group mean
  mean group, SERPINB1: 1.02
SpotID 48451, MAA and Josa vs. Clari
  group mean, gene M6PR: 0.97
SpotID 48456, MAA and Josa vs. Clari
  group mean, gene DDC: 1.12
SpotID 48456, pooled group mean
  mean group, DDC: 1.12
SpotID 48461, pooled group mean
  mean group, BARD1: 0.98
SpotID 48470, MAA and Josa vs. Clari
  group mean, gene MCM5: 0.97
SpotID 48471, MAA and Josa vs. Clari
  group mean, gene RBM3: 1.06
SpotID 48486 (gene symbol not given), pooled group mean
  mean group, SpotID 48486: 1.21
SpotID 48500, MAA and Josa vs. Clari
  group mean, gene RPL13A: 1.05
SpotID 48500, pooled group mean
  mean group, RPL13A: 1.05
SpotID 48508, MAA and Josa vs. Clari
  group mean, gene USP24: 1.03
SpotID 48521, MAA and Josa vs. Clari
  group mean, gene ARAF1: 1.12
SpotID 48521, pooled group mean
  mean group, ARAF1: 1.12
SpotID 48530, MAA and Josa vs. Clari
  group mean, gene APLP2: 0.95
SpotID 48530, pooled group mean
  mean group, APLP2: 0.95
SpotID 48557, pooled group mean
  mean group, NFE2L1: 0.97
SpotID 48620, pooled group mean
  mean group, XBP1: 0.98
SpotID 48643, MAA and Josa vs. Clari
  group mean, gene DIP2: 1.00
SpotID 48644, MAA and Josa vs. Clari
  group mean, gene KIAA0323: 1.01
SpotID 48646, MAA and Josa vs. Clari
  group mean, gene SDCBP: 0.97
SpotID 48646, pooled group mean
  mean group, SDCBP: 0.97
SpotID 48654, pooled group mean
  mean group, FECH: 1.05
SpotID 48672, MAA and Josa vs. Clari
  group mean, gene CHK: 0.87
SpotID 48693, MAA and Josa vs. Clari
  group mean, gene HSPBP1: 1.04
SpotID 48693, pooled group mean
  mean group, HSPBP1: 1.04
SpotID 48705, MAA and Josa vs. Clari
  group mean, gene SIGIRR: 0.97
SpotID 48707, MAA and Josa vs. Clari
  group mean, gene P4HA1: 0.97
SpotID 48707, pooled group mean
  mean group, P4HA1: 0.97
SpotID 48713, MAA and Josa vs. Clari
  group mean, gene MKNK2: 0.96
SpotID 48717, pooled group mean
  mean group, PPP3CB: 1.09
SpotID 48725, MAA and Josa vs. Clari
  group mean, gene IKKE: 0.84
SpotID 48725, pooled group mean
  mean group, IKKE: 0.84
SpotID 48732, pooled group mean
  mean group, RALA: 0.98
SpotID 48747, pooled group mean
  mean group, MAFB: 1.14
SpotID 48804, MAA and Josa vs. Clari
  group mean, gene KIAA0217: 1.01
SpotID 48804, pooled group mean
  mean group, KIAA0217: 1.01
